Experiment: gradient 5% acetonitrile 3 min, to 50% in 2 min, to 85% in 15 min, held 3 min, 100 µL/min
Settings: column: Zorbax Extend-C18 2.1 x 50 mm; eluents: water / acetonitrile, 0.1% formic acid
Procedure, shortened: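 A Zorbax Extend-C18 column (2.1 × 50 mm, 1.8 μm) run at 100 μL/min with water and acetonitrile, both containing 0.1% formic acid, separated mixtures of ~100 pure standards. The HPLC was coupled to a quadrupole time-of-flight mass spectrometer operated in positive and negative ionization mode, with dead and dwell volumes of 40 μL and 900 μL. Each retention time was taken from a computationally picked adduct peak that was then manually inspected.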

| Compound | RP-LC retention time [s] |
| --- | --- |
| COc1cc(OC)cc(C(=O)Nc2cc(-c3cn4cccnc4n3)ccc2OC)c1 | 708 |
| COc1ccccc1NC(=O)C1CCCN1S(=O)(=O)c1cc2c(cc1C)NC(=O)C(C)O2 (stereo unspecified) | 801 |
| CCn1cc(-c2nc(C)c(C(=O)NCc3ccc4c(c3)OCO4)s2)c2cccnc21 | 925 |
| CNC(=O)c1ccc2c(c1)CCCN2C(=O)c1ccc(F)cc1 | 698 |
| CCNC(=O)c1c2c(nc3ccc(F)cc13)CCCC2 | 588 |
| O=C(Nc1cccc(F)c1)C1CC(=O)N(c2ccc3c(c2)CCN3C(=O)C2CCC2)C1 (stereo unspecified) | 839 |
| O=C(Cn1cnc(-c2cccs2)cc1=O)NCCn1nc(-c2ccco2)ccc1=O | 636 |
| COCc1nn(C)c2c1CN(S(=O)(=O)c1cccc(C#N)c1)CC2 | 676 |
| CC1CCN(S(=O)(=O)c2ccc3nc(N4CCN(C5CCCCC5)CC4)ccc3c2)CC1 | 776 |
| CCN(CC)CCNC(=O)c1cc2n(n1)CC(C)(C(=O)NCc1ccc(F)cc1)N(C)C2=O (stereo unspecified) | 589 |
| COc1ccc(NC(=O)N2c3ccccc3CC2c2nc(C3CC3)no2)cc1OC (stereo unspecified) | 933 |
| COc1ccccc1N1CCN(C(=O)Cn2nc(C(=O)N3CCOCC3)c3ccccc32)CC1 | 718 |
| Cn1nnc2ccc(-c3noc(-c4cccc(Cl)c4)n3)cc21 | 1120 |
| COc1ccccc1CN1CN=C(Nc2nc(C)c3ccc(C)cc3n2)NC1 | 568 |
| O=C(Nc1ccc(F)cc1F)NC1CCN(c2ccc(F)cc2)C1=O (stereo unspecified) | 823 |
| Cc1cccc(-c2nnc(C)c(N3CCC(C)CC3)n2)c1 | 771 |
| O=C(NCCc1c[nH]c2ccc(Cl)cc12)c1ccc(CN2C(=O)CCn3nccc32)cc1 | 768 |
| CCOc1ccc(NC(=O)Cn2c(=O)n(-c3ccccc3)c(=O)c3c2cc(C)n3C)cc1 | 832 |
| COC(=O)c1ccc(-c2csc(NC(=O)C3CCCC3)n2)cc1 | 942 |
| Cc1noc(C2(NS(=O)(=O)c3ccc(C#N)cc3)CCCCC2)n1 | 773 |
| Cc1cc(C(=O)N2CCCCCC2c2nnc(C)o2)on1 (stereo unspecified) | 669 |
| COc1ccc(-c2nnc(N3CCC(C(=O)NCCN(C)C)CC3)o2)cc1 | 594 |
| CCc1nnc(-c2cn(CC(=O)NC3CCCCCC3)c3ccccc23)o1 | 790 |
| CC(C)(C)c1cc(NC(=O)COc2ccccc2F)n(CCO)n1 | 759 |
| CC1CCC2(CC1)NC(=O)N(CC(=O)Nc1cccc(F)c1)C2=O (stereo unspecified) | 816 |
| CCC(=O)N(C)CCc1noc(-c2ccc(C(=O)NCCC(C)C)cc2)n1 | 806 |

Source: the METLIN SMRT retention time set (Domingo-Almenara et al. 2019)
